The values below come from patent publication US10987430B2, “Di-substituted maleic amide linker for antibody drug conjugating and preparation method and use thereof” (Mabwell (shanghai) Bioscience Co., Ltd., priority 2016, dated 2021).

Assay [1] concerns SK-BR-3 human breast cancer cells. Kind of assay: SRB cell proliferation assay in vitro. The format is cell-based. The following applies: SK-BR-3, Her2 highly expressing, 5 days, FIG. 4. From the text: (§1) Sulforhodamine B (SRB)-based colorimetric method was used in this Example to evaluate the anti-proliferative effect of the drugs. SRB is a pink anionic dye which is easily soluble in water and can specifically bind to basic amino acids making up proteins in cells under an acidic condition. It provides an absorption peak at 510 nm, and the absorbance is linearly and positively correlated with the amount of cells. In this regard, the method can be used in a quantitative detection of cell number.
BT-474, SK-BR-3 and NCI-N87 cells in RPMI 1640 medium containing 10% fetal bovine serum, SKOV-3, Du-145, Panc-1, MCF-7 and MDA-MB-231 cells in DMEM containing 10% fetal bovine serum, and MDA-MB-468 cells in DMEM/F12 containing 10% fetal bovine serum were incubated to logarithmic growth phase in a 5% CO2 incubator at 37° C. The above cells in the logarithmic growth phase were inoculated into 96-well plates at a density of 2×10^3 to 9×10^3 cells per well, 100 μL per well, cultured for 24 hours and then different concentrations of drugs were added thereto for 5 days. Specifically, each drug was prepared into nine concentrations by diluting in 3, 4 or 5-fold, each concentration was set in duplicate wells, and corresponding concentration of vehicle control wells and medium control wells without cells were set too. […]

Assay [2] has as its system human gastric cancer NCI-N87 subcutaneous xenografts. Kind of assay: In vivo anti-tumor efficacy assay (FIG. 24), IV on D 0. The arrangement: species or system BALB/cA-nude mice. As to conditions: 1.0 mg/kg. How it is done:
(§2) 6-7 weeks BALB/cA-nude mice (♀) were purchased from Shanghai Lingchang Biotechnology Co., Ltd. Production license number: SCXK (Shanghai) 2013-0018; animal certificate number: 2013001815683; and feeding environment: SPF level.
Those nude mice were subcutaneously inoculated with 6×10^6 human gastric cancer NCI-N87 cells, and after the tumors grew to 100-250 mm^3, the mice were divided into groups (D0) according to tumor volumes. The mice were injected intravenously (IV), each with an administration volume 10 mL/kg; mice in vehicle control group was administered with the same volume of “vehicle” (physiological saline containing 0.1% BSA). Tumor volume was measured 2 times a week, the mice were weighed, and corresponding data were recorded.
The purpose of this experiment was to investigate the effect of the drugs on tumor growth using specific indicators T/C % or tumor growth inhibition value (TGI) (%).
Tumor diameters were measured twice a week with a vernier caliper. The tumor volume (V) was calculated as: V=½×a×b^2; in which a and b represent length and width respectively. T/C(%)=(T−T0)/(C−C0)×100, in which T and C represent the tumor volumes at the end of the experiment; T0 and C0 represent the tumor volumes at the beginning of the experiment. […]

Assay [3] has the same test system. Briefly: In vivo anti-tumor efficacy assay (FIG. 10), IV once a week, 2 times in total. More on the design: species or system BALB/cA-nude mice. As to conditions: 1 mg/kg. How it is done:
as §2
Those nude mice were subcutaneously inoculated with human gastric cancer NCI-N87 cells, and then randomly divided into groups (D0) when tumors grew to 100-250 mm^3. Tumor volume was measured 2-3 times a week, the mice were weighed, and corresponding data were recorded. The tumor volume (V) was calculated as: V=½×a×b^2; in which a and b represent length and width respectively. T/C (%)=(T−T0)/(C−C0)×100, in which T and C represent the tumor volumes at the end of the experiment; T0 and C0 represent the tumor volumes at the beginning of the experiment.

In assay [4] the test system is NCI-N87 human gastric cancer cells. Briefly: SRB cell proliferation assay in vitro. Format: cell-based.
Text: as §1
(§3) BT-474, SK-BR-3 and NCI-N87 cells in RPMI 1640 medium containing 10% fetal bovine serum, SKOV-3, Du-145, Panc-1, MCF-7 and MDA-MB-231 cells in DMEM containing 10% fetal bovine serum, and MDA-MB-468 cells in DMEM/F12 containing 10% fetal bovine serum were incubated to logarithmic growth phase in a 5% CO2 incubator at 37° C. The above cells in the logarithmic growth phase were inoculated into 96-well plates at a density of 2×10^3 to 9×10^3 cells per well, 100 μL per well, cultured for 24 hours and then different concentrations of drugs were added thereto for 5 days. Specifically, each drug was prepared into nine concentrations by diluting in 3, 4 or 5-fold, each concentration was set in duplicate wells, and corresponding concentration of vehicle control wells and medium control wells without cells were set too. At the end of drug action, culture solutions were decanted, and 100 μl of a pre-cooled trichloroacetic acid solution (30%, w/v) at 4° C. was added to each well and the cells were fixed at 4° C. for 1 hour. Subsequently, the cells were washed with deionized water for 5 times, and dried at room temperature, and then 100 μL of 0.4% (w/v) SRB dye (Sigma, prepared with 1% glacial acetic acid) was added to each well. After being incubated and stained at room temperature for 30 minutes, the cells were washed with 1% glacial acetic acid for 4 times to remove unbound dyes, and then dried at room temperature. Afterwards, 100 μL of 10 mM Tris solution was added per well.
(§4) Sulforhodamine B (SRB)-based colorimetric method was used in this Example to evaluate the anti-proliferative effect of the drugs. […] It provides an absorption peak at 510 nm, and the absorbance is linearly and positively correlated with the amount of cells. In this regard, the method can be used in a quantitative detection of cell number.
(§5) The above cells in the logarithmic growth phase were inoculated into 96-well plates at a density of 2×10^3 to 9×10^3 cells per well, 100 μL per well, cultured for 24 hours and then different concentrations of drugs were added thereto for 5 days. […] At the end of drug action, culture solutions were decanted, and 100 μl of a pre-cooled trichloroacetic acid solution (30%, w/v) at 4° C. was added to each well and the cells were fixed at 4° C. for 1 hour.

The test system of assay [5] is BT-474 human breast cancer cells. Kind of assay: SRB cell proliferation assay in vitro. Format: cell-based.
Text: as §1, §3, §4, §5

For assay [6], the system named is 18 human tumor cell lines. The following applies: cited from earlier work.

On to “P-mcVC-MMAE: comparison Pertuzumab conjugate; traditional mcVC-PAB conjugate with MMAE”, for which the “inhibition of tumor cell proliferation” value in assay [1] was “significant inhibition of tumor cell proliferation”. Moreover, in assay [2], the “% T/C D 23” value is listed as 17%, the “% TGI D 23” value is 83% and the “Mean tumor volume (mm3) D 23” value is listed as 194.6 mm3. Also, in assay [2] (number of mice, 6 per group), the Partial regression stood at 3 and the complete regression stood at 0. In assay [3], the “mice with tumors partially regressed” value is 2/6 and the tumor inhibition rate was 94%. For the same substance, the “inhibition of tumor cell proliferation” value in assay [4] (NCI-N87, Her2 highly expressing, 5 days, FIG. 6, FIG. 9-1) was “significant inhibition of tumor cell proliferation”. In addition, the “inhibition of tumor cell proliferation” value in assay [5] (BT-474, Her2 highly expressing, 5 days, FIG. 5) is on record as “significant inhibition of tumor cell proliferation”.
As for “Pertuzumab: HER2 antibody, naked antibody”, the half-inhibitory concentration (IC50) – broadly, the midpoint of a concentration-inhibition curve – in assay [4] (NCI-N87, 120 h) was more than 10 µg/mL; in assay [5] (BT-474, 120 h) it was more than 10 µg/mL.
For Taltobulin, in assay [6], the IC50 was 2.5 nM.
